One series concerns Lphn3.1 WT larvae. In words: Motor assay in wild-type zebrafish larvae. In kind it is in vivo, zebrafish (Danio rerio).
The test system of series [1] is scopolamine-induced cognitive dysfunction. In words: T-maze alternation test, scopolamine-induced cognitive dysfunction model. The settings on record: vs scopolamine-exposed mice; p<0.0001; FIG. 4. In kind it is in vivo, Male CD-1 mice. The source says:
Male CD-1 mice aged 4-5 weeks were allocated to a T-maze to perform the T-maze alternation test as described by Andriambeloson et al., 2014 (Pharma Res Per, 2 (4), 2014, e00048, included herein by reference). In brief, each mouse was placed in a T-maze consisting of a main stem and two arms. The experiment consisted of one “forced-choice” trial and 14 “free-choice” trials to evaluate the number of spontaneous alternations.

A further series deals with Lphn3.1 HOM larvae. In words: Sleep behavior in freely moving zebrafish larvae during lights-off period. To be noted: for comparison of all sleep parameters (summary): 1, 10, 30 μM, FIG. 6A-6D. As to the method: This assay provides a measure of muscle weakness and/or motor coordination, which co-occurs with certain sleep states, but can also occur independently of sleep. […] Thus, to evaluate the effect of moxonidine on sleep behavior, the sleep behavior in freely moving zebrafish (Lphn3.1 HOM larvae) following treatment with moxonidine, a comparator compound, or negative control (i.e. saline or vehicle control) was assessed in line with the criteria described by Levitas-Djerbi et al., (Curr Opin Neurobiol. 2017; 44:89-93) and Sorribes et al., (Front Neural Circuits. 2013 Nov. 13; 7:178).
In brief, sleep behavior was recorded in a 96-well plate and analysed during the lights-off period (22:00-08:00). First, all behavior was dichotomized into 1-s bins of movement or non-movement. […] All activity that was slower than that threshold was computed as non-movement. Thus, rendering a dichotomized record of the behavior in either movement or non-movement. Next, the dichotomized record was transformed into bins of sleep and wake. Following previously established sleep criteria in adults, and adapted to larval fish (Yokogawa et al., PLoS Biol. 2007; 5(10):2379-97, Sorribes et al., Front Neural Circuits. 2013; 7:178, and Sigurgeirsson et al., Behav Brain Res. 2013; 256:377-90), six or more consecutive 1-s bins of non-movement were counted as sleep and all else was counted as wake. That is, the seventh second and above were classified as sleep; all other bouts were classified as wake. Once the number of sleep and wake bouts was calculated, five different sleep parameters were assessed (i.e. sleep fragmentation, sleep ratio, velocity during sleep, wake bout duration(s), and sleep bout duration(s)). Sleep fragmentation was defined as the number of transitions between sleep and wake bouts per hour. Sleep ratio was calculated as the percentage of total night time that the fish was considered asleep. Velocity during sleep (mm/s) was defined as the average velocity throughout the night time. Wake bout duration(s) was defined as the average length of wake bouts. Sleep bout duration(s) was defined as the average length of sleep bouts.

[2] abbreviates: 1 uM vs HOM - DMSO, average length of sleep bouts.
Where [3] appears, read: 1 uM vs HOM - DMSO, average length of wake bouts.
[4] abbreviates: 1 uM vs HOM - DMSO, average velocity throughout the night time.
[5] abbreviates: 1 uM vs HOM - DMSO, share of total night time asleep.
Where [6] appears, read: 1 uM vs HOM - DMSO, transitions between sleep and wake bouts per hour, lights-off 22:00-08:00.
The mark [7] stands for this setting: 10 uM vs HOM - DMSO, average length of sleep bouts.
[8] abbreviates: 10 uM vs HOM - DMSO, average length of wake bouts.
Where [9] appears, read: 10 uM vs HOM - DMSO, average velocity throughout the night time.
[10] abbreviates: 10 uM vs HOM - DMSO, share of total night time asleep.
Where [11] appears, read: 10 uM vs HOM - DMSO, transitions between sleep and wake bouts per hour, lights-off 22:00-08:00.
[12] abbreviates: 30 uM vs HOM - DMSO, average length of sleep bouts.
The mark [13] stands for this setting: 30 uM vs HOM - DMSO, average length of wake bouts.
Setting [14] is: 30 uM vs HOM - DMSO, average velocity throughout the night time.
Setting [15] is: 30 uM vs HOM - DMSO, share of total night time asleep.
Setting [16] is: 30 uM vs HOM - DMSO, transitions between sleep and wake bouts per hour, lights-off 22:00-08:00.
Where [17] appears, read: Lphn3.1 HOM, zebrafish, in vivo, 10 h, 1 uM.
The mark [18] stands for this setting: Lphn3.1 HOM, zebrafish, in vivo, 10 h, 10 uM.
Setting [19] is: Lphn3.1 HOM, zebrafish, in vivo, 10 h, 30 uM.

Where a name gives a salt, the structure may show the parent alone. Marks after values point to notes of the source that are not given here.

For the compound `CNCC[C@@H](Oc1ccccc1C)c1ccccc1` [atomoxetine, atomoxetine hydrochloride], in the series on Lphn3.1 WT larvae, the “velocity in wild-type larvae” value is “increase velocity”. For the same compound, the “spontaneous alternations, rescue of scopolamine effect” value in series [1] is listed as “rescued”. In addition, the “SleepDuration (sleep bout duration) Mean Difference (I − J)” value with Lphn3.1 HOM larvae (setting [2]) is 8.266* s; in the series on Lphn3.1 HOM larvae (setting [7]), 6.306* s; in the series on Lphn3.1 HOM larvae (setting [12]), 9.808* s. Also, the “WakeDuration (wake bout duration) Mean Difference (I − J)” value in the series on Lphn3.1 HOM larvae (setting [3]) was −2.547* s; in the series with Lphn3.1 HOM larvae (setting [8]), -1.806 s; in the series on Lphn3.1 HOM larvae (setting [13]), −3.112* s. The “Velocity (during sleep) Mean Difference (I − J)” value is “−.09320* mm/s” in the series with Lphn3.1 HOM larvae (setting [4]), “−.03944* mm/s” in the series with Lphn3.1 HOM larvae (setting [9]) and “−.10640* mm/s” with Lphn3.1 HOM larvae (setting [14]). Also, the “SleepRatio Mean Difference (I − J)” value is “.18730*” with Lphn3.1 HOM larvae (setting [5]), “.15382*” in the series with Lphn3.1 HOM larvae (setting [10]) and “.22326*” in the series on Lphn3.1 HOM larvae (setting [15]). Further, the “SleepFragmentation Mean Difference (I − J)” value in the series on Lphn3.1 HOM larvae (setting [6]) was −23.58*; with Lphn3.1 HOM larvae (setting [11]), −19.14*; in the series on Lphn3.1 HOM larvae (setting [16]), −26.47*. Moreover, the “comparison of all sleep parameters (summary)” value in the series on Lphn3.1 HOM larvae is reported as “drastically altered all sleep parameters at the majority of doses tested”.
For `N=C(N)NC(=O)Cc1c(Cl)cccc1Cl` [Guanfacine, guanfacine], in the series with Lphn3.1 HOM larvae (setting [17]), the “SleepDuration (sleep bout duration) Mean Difference (I − J)” value was 3.64* s, the “SleepFragmentation Mean Difference (I − J)” value is −1.812, the “SleepRatio Mean Difference (I − J)” value was “.12336*” and the “Velocity (during sleep) Mean Difference (I − J)” value is reported as “−.08559* mm/s”. The “WakeDuration (wake bout duration) Mean Difference (I − J)” value in the series with Lphn3.1 HOM larvae (setting [17]) was −3.163* s. Further, in the series on Lphn3.1 HOM larvae (setting [18]), the “SleepDuration (sleep bout duration) Mean Difference (I − J)” value is listed as 1.224 s, the “SleepFragmentation Mean Difference (I − J)” value was 7.4424, the “SleepRatio Mean Difference (I − J)” value is reported as “.06927*” and the “Velocity (during sleep) Mean Difference (I − J)” value is “−.07521* mm/s”. For the same compound, the “WakeDuration (wake bout duration) Mean Difference (I − J)” value in the series with Lphn3.1 HOM larvae (setting [18]) is recorded as −2.542* s. In addition, in the series on Lphn3.1 HOM larvae (setting [19]), the “SleepDuration (sleep bout duration) Mean Difference (I − J)” value is on record as 2.369* s, the “SleepFragmentation Mean Difference (I − J)” value is given as 1.559, the “SleepRatio Mean Difference (I − J)” value is reported as “.09806*” and the “Velocity (during sleep) Mean Difference (I − J)” value is listed as “−.08512* mm/s”. Besides, the “WakeDuration (wake bout duration) Mean Difference (I − J)” value in the series on Lphn3.1 HOM larvae (setting [19]) is −2.735* s.
On to `Clc1cccc(Cl)c1N=C1NCCN1` [Clonidine, clonidine], for which the “SleepDuration (sleep bout duration) Mean Difference (I − J)” value with Lphn3.1 HOM larvae (setting [2]) is on record as −4.177* s; in the series with Lphn3.1 HOM larvae (setting [7]) it was −4.388* s; in the series on Lphn3.1 HOM larvae (setting [12]), −6.197* s. The “WakeDuration (wake bout duration) Mean Difference (I − J)” value in the series with Lphn3.1 HOM larvae (setting [3]) is on record as 2.095* s; in the series with Lphn3.1 HOM larvae (setting [8]) it was 2.1* s; in the series with Lphn3.1 HOM larvae (setting [13]), 8.132* s. In addition, the results for the “Velocity (during sleep) Mean Difference (I − J)” value in the series with Lphn3.1 HOM larvae (setting [4]), with Lphn3.1 HOM larvae (setting [9]) and in the series with Lphn3.1 HOM larvae (setting [14]) were “.08382* mm/s”, “.09470* mm/s” and “.23026* mm/s”, respectively. For the same compound, the “SleepRatio Mean Difference (I − J)” value with Lphn3.1 HOM larvae (setting [5]) was “−.12630*”; in the series with Lphn3.1 HOM larvae (setting [10]), “−.13226*”; with Lphn3.1 HOM larvae (setting [15]) it was “−.24115*”. Also, the “SleepFragmentation Mean Difference (I − J)” value in the series on Lphn3.1 HOM larvae (setting [6]) is given as 11.79*; in the series on Lphn3.1 HOM larvae (setting [11]) it was 12.98*; in the series on Lphn3.1 HOM larvae (setting [16]) it was −7.699. The “comparison of all sleep parameters (summary)” value with Lphn3.1 HOM larvae is reported as “drastically altered all sleep parameters at the majority of doses tested”.

Values taken from patent US20240002369A1, “NOVEL TREATMENTS OF ATTENTION DEFICIT/HYPERACTIVITY DISORDER” (priority 2020, published 2024).
